According to US11439646B2, “Anti-proliferative agents for treating PAH” (Pfizer Inc., priority 2016, dated 2022):
Read-outs that look alike come from different tables or passages of the source.

Key:
[1] = test system: Rat MCT-induced PAH Model; experiment: Rat MCT-induced PAH model (hemodynamics, histomorphometry, IHC); type: in vivo
Experimental: Rat MCT-induced PAH Model: Male Sprague-Dawley rats (Charles River Laboratories) (260-280 g; vehicle control group, n=6; all other groups, n=15) received MCT (50 mg/kg, SC; 1 ml/kg BVV) dissolved in vehicle (33.3% 1 N HCl, 14.8% 1 N NaOH, 52.2% diH2O) or vehicle alone on day 0. Sildenafil (50 mg/kg/dose; BID) was administered (5 ml/kg, PO) either prophylactically from days 0-28 or therapeutically from days 14-28. Palbociclib (100 mg/kg; QD) was administered therapeutically (days 14-28). Both sildenafil and palbociclib were resuspended in vehicle (0.5% methylcellulose) and administered orally (5 ml/kg). On day 28, animals were anesthetized via isoflurane, hemodynamic parameters were evaluated, and tissues harvested after euthanasia.
Hemodynamic measurements—monocrotaline (MCT) study: On day 28, animals were anesthetized via 2% isofluorane in positive pressure ventilator. Pulmonary hemodynamics were measured using a pre-calibrated pressure transducer in isoflurane positive-pressure ventilated animals. Steady-state pulmonary and systemic arterial pressures were measured using a Millar Solid State Mikro-tip catheter (Millar Instruments, Houston, Tex.) introduced to the pulmonary arterial trunk at the level of the aortic arch via the right carodid artery. Hemodynamic values were automatically calculated by the physiological data acquisition system, ADI Chart (ADI Instruments, Colorado Springs, Colo.) (Plato BioPharma).
Measurement of RV hypertrophy. After collection of the heart at necropsy, the atria and great vessels were removed. The RV was separated from the LV and S. The wet weights of the RV and LV+S were measured to calculate the Fulton Index.
Tissue preparation. Under anesthesia, the animals were exsanguinated, and the pulmonary circulation flushed with oxygenated (animals from Example 3 [MCT]) or heparizined (animals from Example 4 [Su5416/Hx]) saline. Trachea, lungs, and heart were removed intact from thoracic cavity and placed in ice-cold saline. Right lung lobes were removed, weighed, and immediately flash frozen in liquid nitrogen. A 10 mL syringe filled with fixative (10% NBF) with attached blunt tip needle (20 g) was used to inflate the left lung lobe and the airway was tied off to keep it consistently expanded. The left lung was then immersion fixed in 10% NBF for 48 hrs and then transferred to 70% EtOH for ≤5 days.
Histomorphometric analysis. Three, 3-5 μm thick, transverse sections of the left lung lobe were used for histomorphometric analysis. Overall disease severity scores were determined by light microscopic evaluation of hematoxylin and eosin (H&E)-stained lung sections by a board-certified veterinary pathologist. Scores ranged from 0 (absent), 1 (minimal), 2 (mild), 3 (moderate), 4 (marked) to 5 (severe) and were assigned according to the approximate percentage of the tissue affected by the tissue changes (inflammatory, degenerative, vascular and/or proliferative) characteristic of the PAH model. Average vessel wall thickness was evaluated using lung sections prepared with a modified Verhoeff-van Gieson elastin stain. Image analysis was performed using random field sampling (Visiopharm newCAST) of 10% of tissue area with observer-assisted identification of intra-acinar and pre-acinar vessels and application of a nucleator probe to measure vessel wall thickness. Fully muscularized intra-acinar vessel density was evaluated in a similar manner using dual αSMA/Ki67 IHC-stained sections and observer-assisted counting of ≥70% muscularized (i.e. SMA^+), transversely sectioned, ≤50 μm external diameter, intra-acinar vessels with an identifiable lumen. Vessel-associated Ki67^+ and pRb^+ cells were counted in αSMA/Ki67 IHC-and CD31/pRb IHC-stained lung sections, respectively, using random field sampling of 10% of tissue area and observer-assisted identification of Ki67^+ or pRb^+ cells associated with the walls (i.e. in the intima or media) of vessels 100 μm external diameter.
Immunohistochemistry. […]

human primary PAAFs = experiment: BrdU cell proliferation assay, human primary PAAFs; type: cell-based; settings: serum, average of 3, FIG. 1c, read-out: IC50, serum-induced proliferation of human primary PAAFs
Experimental: Cell proliferation assay. Primary PASMCs and PAAFs from normal human subjects (ScienCell Research Laboratories, San Diego, Calif., USA) and rat primary PASMCs (Cell Applications, San Diego, Calif., USA) were plated in CellBIND® 96-well plates in Dulbecco's modification of Eagle's medium (DMEM) containing 5% fetal bovine serum (FBS), and serum-starved for 24 h in DMEM containing 0.1% FBS. Cells were first pre-incubated with different concentrations of palbociclib (in triplicates) for 30 minutes, and then 30 ng/ml PDGF-BB or 5% FBS was added to stimulate cell proliferation. Cells were maintained for 48 h before the proliferation rate was evaluated using the Cell Proliferation ELISA BrdU (bromodeoxyuridine) Luminescence Kit (Roche Diagnostics, Mannheim, Germany). BrdU was added to the medium 16 h before the quantification of BrdU incorporation. This procedure was use to generate data as presented in at least FIGS. 1a, 1b, 1c, and 1d. IC50 values were calculated for any given inhibitor by determining the concentration of compound needed to inhibit 50% of the response applied to the system. IC50 values were derived from the four parameter logistic equation which was fit to the compound concentration response data.

phospho-Rb (Ser807/811) = experiment: In-cell western analysis of Rb phosphorylation in human PASMCs; type: cell-based; settings: for IC50: PASMC
Experimental: In-cell western analysis. Primary PASMCs from normal human subjects were cultured and serum-starved as described above. Cells were first pre-incubated with different concentrations of palbociclib for 60 minutes, and then either 5% FBS or 10% FBS or 30 ng/ml PDGF-BB was added to stimulate cell proliferation and Rb phosphorylation. The effect of Palbociclib on Rb phosphorylation was evaluated 24 h later, using in-cell western assay according to the manufacturer's instructions (Li-Cor Biosciences, Lincoln, Nebr., USA). Phosphorylated Rb was measured using a rabbit monoclonal antibody anti-phospho-Rb (Ser807/811) (Cell Signaling Technology, Inc., Danvers, Mass., USA), followed by detection with IRDye 800CW infrared fluorescent dye-labeled goat anti-rabbit secondary antibody. Actin levels were measured using mouse anti-actin monoclonal antibodies (pan Ab-5) (Fisher Scientific Pittsburgh, Pa., USA; Sigma Aldrich, St. Louis, Mo., USA), and followed by detection with IRDye 680RD-labeled goat anti-mouse secondary antibody. See FIG. 2a where 5% FBS was used, FIG. 2b where PDGF-BB was used, and FIG. 2c where 10% FBS was used.

[2] = day 14-28, score scale 0-5, FIG. 3g

SMILES: CC(=O)c1c(C)c2cnc(Nc3ccc(N4CCNCC4)cn3)nc2n(C2CCCC2)c1=O [Palbociclib, 6-acetyl-8-cyclopentyl-5-methyl-2-{[5-(piperazin-1-yl)pyridin-2yl]amino}pyrido[2,3-d]pyrimidin-7(8H)-one]
- structural changes in the pulmonary vasculature (histomorphometry) ([1]; FIG. 3f): dramatically improved and in some cases fully normalized
- vessel-associated Ki67+ proliferating cells (IHC, lung) ([1]; FIG. 5c): dramatically decreased to control levels
- vessel-associated phosphoRb+ cells (IHC, lung) ([1]; FIG. 5d): dramatically decreased to control levels
- density of fully muscularized intra-acinar vessels (αSMA staining) ([1]; day 14-28, FIG. 3e): greater reduction
- average vessel wall thickness (elastin staining), intra-acinar and pre-acinar pulmonary arteries, relative to vehicle/MCT group ([1]; day 14-28, FIG. 3d): 0.58 x MCT
- disease severity scores, mean [1, 2]: 1
- disease severity scores, range [1, 2]: 0-2
- hemodynamic and physiologic effects ([1]; palbociclib 100 mg/kg/day PO QD, therapeutic day 14-28, versus sildenafil day 0-28): not only matched but exceeded the positive hemodynamic and physiologic effects of sildenafil when dosed prophylactically
- IC50 (human primary PAAFs): 21.6 nM
- IC50 (phospho-Rb (Ser807/811); Homo sapiens, 10% FBS, N = 6, FIG. 2c, read-out: Average IC50 (nM), inhibition of phosphorylation of Rb in hPASMCs): 64.2 nM
- IC50 (phospho-Rb (Ser807/811); human PASMCs, 5% FBS, FIG. 2a, read-out: IC50, serum-induced Rb phosphorylation): 14.9 nM
- IC50 (phospho-Rb (Ser807/811); human PASMCs, PDGF-BB, FIG. 2b, read-out: IC50, PDGF-BB induced Rb phosphorylation): 5.2 nM
- effect on total Rb levels (phospho-Rb (Ser807/811); human primary PASMCs, 5% FBS or PDGF-BB): little effect
